One experiment deals with TLR7 (Homo sapiens (Human), UniProt Q9NYK1). The experiment can be described thus: TLR7 human peripheral blood mononuclear cell (PBMC) cell-based assay (GS-986 as agonist; IL-6 and IFNα readout). To be noted: human PBMCs, TLR7 agonist GS-986 at 400 nM, 6 hours, antagonist potency; read-out: TLR-7 EC50. Put shortly: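 IL-6 and IFNα released into supernatant were quantified by electrochemiluminescence immunoassay. Before that, human PBMCs at 100,000 per well received a 10-point antagonist titration for 1 h, then TLR7 agonist for 6 more hours, all at 37 °C, 5% CO2.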
TLR7, sequence (Q9NYK1 27-1049): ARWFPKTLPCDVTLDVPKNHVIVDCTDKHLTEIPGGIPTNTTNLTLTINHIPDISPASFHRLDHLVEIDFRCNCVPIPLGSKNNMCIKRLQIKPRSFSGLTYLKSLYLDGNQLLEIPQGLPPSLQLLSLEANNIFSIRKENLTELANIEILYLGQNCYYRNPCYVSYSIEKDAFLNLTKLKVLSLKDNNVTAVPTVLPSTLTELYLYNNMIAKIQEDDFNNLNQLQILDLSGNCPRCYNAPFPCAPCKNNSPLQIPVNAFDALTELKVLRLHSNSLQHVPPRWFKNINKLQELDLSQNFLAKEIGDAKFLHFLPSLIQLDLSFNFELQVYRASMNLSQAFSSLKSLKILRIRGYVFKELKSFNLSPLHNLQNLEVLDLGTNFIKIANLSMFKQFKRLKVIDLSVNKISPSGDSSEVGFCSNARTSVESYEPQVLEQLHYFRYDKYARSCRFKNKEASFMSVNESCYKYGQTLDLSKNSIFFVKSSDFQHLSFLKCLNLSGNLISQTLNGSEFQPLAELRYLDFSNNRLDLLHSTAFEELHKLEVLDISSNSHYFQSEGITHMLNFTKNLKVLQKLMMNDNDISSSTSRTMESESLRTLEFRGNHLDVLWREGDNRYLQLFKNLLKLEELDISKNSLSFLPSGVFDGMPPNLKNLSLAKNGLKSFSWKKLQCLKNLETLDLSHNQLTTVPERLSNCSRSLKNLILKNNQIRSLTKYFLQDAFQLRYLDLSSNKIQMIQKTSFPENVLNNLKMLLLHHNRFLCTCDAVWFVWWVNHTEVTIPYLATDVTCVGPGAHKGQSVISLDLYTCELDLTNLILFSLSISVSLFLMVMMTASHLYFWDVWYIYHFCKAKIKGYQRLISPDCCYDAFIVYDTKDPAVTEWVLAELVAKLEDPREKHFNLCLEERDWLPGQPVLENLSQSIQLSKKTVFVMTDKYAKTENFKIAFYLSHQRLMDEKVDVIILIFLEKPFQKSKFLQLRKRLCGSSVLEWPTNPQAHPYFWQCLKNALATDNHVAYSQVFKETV

In the next experiment the target is TLR8 (Homo sapiens (Human), UniProt Q9NR97). The experiment can be described thus: TLR8 human peripheral blood mononuclear cell (PBMC) cell-based assay (Compound A as agonist; TNFα and IL12p40 readout). The note with it: human PBMCs, TLR8 agonist Compound A at 800 nM, 6 hours, antagonist potency; read-out: TLR-8 EC50.
TLR8, sequence (Q9NR97 27-1041): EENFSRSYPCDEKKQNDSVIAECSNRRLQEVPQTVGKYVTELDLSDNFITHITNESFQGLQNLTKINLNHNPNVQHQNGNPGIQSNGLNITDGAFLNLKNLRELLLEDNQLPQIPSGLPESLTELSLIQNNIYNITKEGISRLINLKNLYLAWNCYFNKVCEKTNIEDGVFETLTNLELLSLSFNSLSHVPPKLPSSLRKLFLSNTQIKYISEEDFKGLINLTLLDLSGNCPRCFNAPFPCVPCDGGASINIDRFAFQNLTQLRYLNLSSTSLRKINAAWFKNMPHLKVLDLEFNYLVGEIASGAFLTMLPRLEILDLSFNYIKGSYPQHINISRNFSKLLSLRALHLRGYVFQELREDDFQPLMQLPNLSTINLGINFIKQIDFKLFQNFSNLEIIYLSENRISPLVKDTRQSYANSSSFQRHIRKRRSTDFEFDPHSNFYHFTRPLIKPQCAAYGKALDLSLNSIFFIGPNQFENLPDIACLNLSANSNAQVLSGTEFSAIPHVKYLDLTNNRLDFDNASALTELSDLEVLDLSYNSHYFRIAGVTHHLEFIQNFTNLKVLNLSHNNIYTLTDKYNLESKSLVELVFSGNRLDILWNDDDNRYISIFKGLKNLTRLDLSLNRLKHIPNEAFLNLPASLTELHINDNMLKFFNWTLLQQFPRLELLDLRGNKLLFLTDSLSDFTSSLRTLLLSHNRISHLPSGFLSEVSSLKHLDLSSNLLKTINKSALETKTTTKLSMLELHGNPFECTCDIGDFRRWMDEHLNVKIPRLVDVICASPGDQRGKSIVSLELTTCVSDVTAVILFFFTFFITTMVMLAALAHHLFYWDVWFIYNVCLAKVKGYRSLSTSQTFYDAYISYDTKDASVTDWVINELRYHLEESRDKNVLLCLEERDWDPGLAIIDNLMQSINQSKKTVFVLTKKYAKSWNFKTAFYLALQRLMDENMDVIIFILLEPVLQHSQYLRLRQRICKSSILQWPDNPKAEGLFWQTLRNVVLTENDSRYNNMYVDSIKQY

Broadly, the EC50 is the concentration needed to bring the measured effect to its halfway point. `Cc1c(C2CCN(S(=O)(=O)N3CCN(C)CC3)CC2)sc2[nH]c(-c3cc(C)c4ncnn4c3)c(C(C)C)c12` [Example 157]: the EC50 was 0.17 nM at TLR7 and 29.6 nM at TLR8.

`Cc1c(C2CCN(C(=O)[C@H]3COC(C)(C)CN3)CC2)sc2[nH]c(-c3cc(C)c4ncnn4c3)c(C(C)C)c12` [Example 158]: the EC50 at TLR7 was 0.15 nM; on TLR8, 61.8 nM.

Consider `Cc1c(C2CCN(C(=O)[C@@H]3COC(C)(C)CN3)CC2)sc2[nH]c(-c3cc(C)c4ncnn4c3)c(C(C)C)c12` [Example 159], for which the figures for the EC50 at TLR7 and on TLR8 were 0.94 nM and 31.5 nM, respectively.

For `COCc1c(C2CCN(CC(N)=O)CC2)sc2[nH]c(-c3cc(C)c4ncnn4c3)c(C(C)C)c12` [Example 160], the EC50 is 0.26 nM at TLR7 and 6.51 nM on TLR8.

`Cc1c(C2CCCN(CC(N)=O)CC2)sc2[nH]c(-c3cc(C)c4ncnn4c3)c(C(C)C)c12` (centres unmarked) [Example 161, 2-(4-(4-isopropyl-3-methyl-5-(8-methyl-[1,2,4]triazolo[1,5-a]pyridin-6-yl)-6H-thieno[2,3-b]pyrrol-2-yl)azepan-1-yl)acetamide]: the results for the EC50 at TLR7 and at TLR8 were 0.13 nM and 7.29 nM, respectively.

With `Cc1cc(-c2[nH]c3sc(C4CCN(CC(N)=O)CC4)c(C(F)F)c3c2C(C)C)cn2ncnc12` [Example 162], the EC50 stood at 3.41 nM on TLR7 and 24.3 nM at TLR8.

For `Cc1c(-c2[nH]c3sc([C@@H]4C[C@@H]5C[C@H]4CN5CC(=O)N(C)C)c(C)c3c2C(C)C)cn2ncnc2c1C` [Example 163], the EC50 was determined as 0.3 nM on TLR7 and 0.38 nM on TLR8.

With `Cc1c(-c2[nH]c3sc([C@@H]4C[C@@H]5C[C@H]4CN5CCCS(C)(=O)=O)c(C)c3c2C(C)C)cn2ncnc2c1C` [Example 164], the EC50 on TLR7 is 0.23 nM; at TLR8, less than 0.05 nM.

As to `Cc1c(-c2[nH]c3sc([C@@H]4C[C@@H]5C[C@H]4CN5CC#N)c(C)c3c2C(C)C)cn2ncnc2c1C` [Example 165], the results for the EC50 on TLR7 and at TLR8 were 0.13 nM and 0.41 nM, respectively.

Turning to `Cc1c(-c2[nH]c3sc([C@@H]4C[C@@H]5C[C@H]4CN5CCC#N)c(C)c3c2C(C)C)cn2ncnc2c1C` [Example 166], the figures for the EC50 at TLR7 and on TLR8 were 1.2 nM and 0.48 nM, respectively.

In the case of `Cc1c(-c2[nH]c3sc([C@@H]4C[C@@H]5C[C@H]4CN5C4COC4)c(C)c3c2C(C)C)cn2ncnc2c1C` [Example 167], the results for the EC50 at TLR7 and on TLR8 were 0.09 nM and 0.45 nM, respectively.

As for `Cc1c(-c2[nH]c3sc([C@@H]4C[C@@H]5C[C@H]4CN5C4CCS(=O)(=O)CC4)c(C)c3c2C(C)C)cn2ncnc2c1C` [Example 168], the EC50 at TLR7 was determined as 0.74 nM; at TLR8, 0.96 nM.

With `Cc1c(-c2[nH]c3sc([C@@H]4C[C@@H]5C[C@H]4CN5C4CC5(C4)CS(=O)(=O)C5)c(C)c3c2C(C)C)cn2ncnc2c1C` [Example 169], the EC50 was 0.29 nM on TLR7 and 0.07 nM at TLR8.

Turning to `Cc1c(-c2[nH]c3sc([C@@H]4C[C@@H]5C[C@H]4CN5Cc4cccc(=O)[nH]4)c(C)c3c2C(C)C)cn2ncnc2c1C` [Example 170], the EC50 at TLR7 was less than 0.05 nM; on TLR8, 0.26 nM.

As for `Cc1c(-c2[nH]c3sc([C@@H]4C[C@@H]5C[C@H]4CN5Cc4ccc[nH]c4=O)c(C)c3c2C(C)C)cn2ncnc2c1C` [Example 171], the values for the EC50 on TLR7 and on TLR8 were less than 0.05 nM and 0.06 nM, respectively.

As to `Cc1c(-c2[nH]c3sc([C@@H]4C[C@@H]5C[C@H]4CN5Cc4cccn(C(F)F)c4=O)c(C)c3c2C(C)C)cn2ncnc2c1C` [Example 172], the EC50 on TLR7 worked out at 3.03 nM; at TLR8 it was 0.82 nM.

Regarding `Cc1c(-c2[nH]c3sc([C@@H]4C[C@@H]5C[C@H]4CN5CC4(F)COC4)c(C)c3c2C(C)C)cn2ncnc2c1C` [Example 173], the EC50 amounted to 0.15 nM on TLR7 and 1.06 nM on TLR8.

Take `Cc1c(-c2[nH]c3sc([C@@H]4C[C@@H]5C[C@H]4CN5Cc4c[nH]nn4)c(C)c3c2C(C)C)cn2ncnc2c1C` [Example 174]: the EC50 on TLR7 was less than 0.05 nM; at TLR8, 0.09 nM.

As for `Cc1c(-c2[nH]c3sc([C@@H]4C[C@@H]5C[C@H]4CN5Cc4nnc[nH]4)c(C)c3c2C(C)C)cn2ncnc2c1C` [Example 176], the EC50 on TLR7 was 0.08 nM; on TLR8 it was 0.12 nM.

As to `Cc1c(-c2[nH]c3sc([C@@H]4C[C@@H]5C[C@H]4CN5Cc4cc[nH]c(=O)c4)c(C)c3c2C(C)C)cn2ncnc2c1C` [Example 177], the EC50 is 0.5 nM at TLR7 and 0.07 nM at TLR8.

Consider `Cc1c(-c2[nH]c3sc([C@@H]4C[C@@H]5C[C@H]4CN5Cc4ccc(=O)[nH]c4)c(C)c3c2C(C)C)cn2ncnc2c1C` [Example 178], for which the EC50 at TLR7 was 0.06 nM; at TLR8, 0.16 nM.

As for `Cc1c(-c2[nH]c3sc([C@@H]4C[C@@H]5C[C@H]4CN5CC(=O)OC(C)(C)C)c(C)c3c2C(C)C)cn2ncnc2c1C` [Example 179, tert-butyl 2-((1S,4R,5R)-5-(5-(7,8-dimethyl-[1,2,4]triazolo[1,5-a]pyridin-6-yl)-4-isopropyl-3-methyl-6H-thieno[2,3-b]pyrrol-2-yl)-2-azabicyclo[2.2.1]heptan-2-yl)acetate], the EC50 at TLR7 stood at 1.71 nM; at TLR8, 3.53 nM.

For the compound `Cc1c(-c2[nH]c3sc([C@@H]4C[C@@H]5C[C@H]4CN5CCS(N)(=O)=O)c(C)c3c2C(C)C)cn2ncnc2c1C` [Example 180], the EC50 on TLR7 was less than 0.05 nM; on TLR8 it was 0.17 nM.

Consider `Cc1c(-c2[nH]c3sc([C@@H]4C[C@@H]5C[C@H]4CN5CCS(=O)(=O)N(C)C)c(C)c3c2C(C)C)cn2ncnc2c1C` [Example 181], for which the EC50 at TLR7 came out at 0.27 nM; at TLR8, 1.23 nM.

On to `CNS(=O)(=O)CCN1C[C@@H]2C[C@H]1C[C@H]2c1sc2[nH]c(-c3cn4ncnc4c(C)c3C)c(C(C)C)c2c1C` [Example 182], for which the EC50 is 0.07 nM at TLR7 and 0.32 nM at TLR8.

As to `Cc1c(-c2[nH]c3sc([C@@H]4C[C@@H]5C[C@H]4CN5CC(=O)NC4CC4)c(C)c3c2C(C)C)cn2ncnc2c1C` [Example 184], the figures for the EC50 at TLR7 and at TLR8 were 1.27 nM and 0.34 nM, respectively.

For the compound `Cc1c(-c2[nH]c3sc([C@@H]4C[C@@H]5C[C@H]4CN5CC(=O)NC(C)C)c(C)c3c2C(C)C)cn2ncnc2c1C` [Example 185], the EC50 on TLR7 is 1.89 nM; at TLR8 it was 0.57 nM.

In the case of `CCNC(=O)CN1C[C@@H]2C[C@H]1C[C@H]2c1sc2[nH]c(-c3cn4ncnc4c(C)c3C)c(C(C)C)c2c1C` [Example 186], the EC50 on TLR7 stood at 0.66 nM; at TLR8 it was 0.45 nM.

With `Cc1c(-c2[nH]c3sc(C4CC5(CC(N)C5)C4)c(C)c3c2C(C)C)cn2ncnc2c1C` (centres unmarked) [Example 187], the EC50 was 0.2 nM at TLR7 and 1.09 nM on TLR8.

As to `Cc1c(-c2[nH]c3sc(C4CC5(C4)CC(N(C4COC4)C4COC4)C5)c(C)c3c2C(C)C)cn2ncnc2c1C` (centres unmarked) [Example 188], the EC50 at TLR7 came out at 5.64 nM; at TLR8, 27.2 nM.

In the case of `Cc1c(C2C[C@H]3CC[C@@H]2CN3)sc2[nH]c(-c3cc(C)c4ncnn4c3)c(C(C)C)c12` (some centres unmarked) [Example 189], the EC50 was found to be 2.23 nM at TLR7 and 30.9 nM at TLR8.

As to `Cc1c(C2CC2C(=O)N2CCNCC2)sc2[nH]c(-c3cc(C)c4ncnn4c3)c(C(C)C)c12` (centres unmarked) [Example 192], the EC50 on TLR7 is 274 nM; at TLR8 it was more than 1000 nM.

Take `Cc1c(C23CNCC2C3)sc2[nH]c(-c3cc(C)c4ncnn4c3)c(C(C)C)c12` (centres unmarked) [Example 193]: the figures for the EC50 on TLR7 and at TLR8 were 0.2 nM and 2.87 nM, respectively.

For `Cc1c(C23CNCCC2C3)sc2[nH]c(-c3cc(C)c4ncnn4c3)c(C(C)C)c12` (centres unmarked) [Example 194], the values for the EC50 on TLR7 and on TLR8 were 0.2 nM and 9.52 nM, respectively.

For the compound `Cc1c(C23CCNCC2C3)sc2[nH]c(-c3cc(C)c4ncnn4c3)c(C(C)C)c12` (centres unmarked) [Example 195], the figures for the EC50 at TLR7 and at TLR8 were 0.05 nM and 2.12 nM, respectively.

Take `Cc1c(C23CC2CCN(CC(N)=O)C3)sc2[nH]c(-c3cc(C)c4ncnn4c3)c(C(C)C)c12` (centres unmarked) [Example 196]: the EC50 on TLR7 came to 0.72 nM; on TLR8, 69.5 nM.

In the case of `Cc1c(C23CC2CN(CC(N)=O)C3)sc2[nH]c(-c3cc(C)c4ncnn4c3)c(C(C)C)c12` (centres unmarked) [Example 197], the EC50 turned out to be 1.74 nM on TLR7 and 29.8 nM at TLR8.

As for `Cc1c(C23CNCC2C3(F)F)sc2[nH]c(-c3cc(C)c4ncnn4c3)c(C(C)C)c12` (centres unmarked) [Example 198], the EC50 turned out to be 5.06 nM on TLR7 and 13.8 nM on TLR8.

With `Cc1c(C23CCN(CC(N)=O)CC2C3)sc2[nH]c(-c3cc(C)c4ncnn4c3)c(C(C)C)c12` (centres unmarked) [Example 199], the results for the 50% effective concentration (EC50) at TLR7 and at TLR8 were 0.47 nM and 14.8 nM, respectively.

Consider `Cc1c(C23CN(CC(N)=O)CC2C3(F)F)sc2[nH]c(-c3cc(C)c4ncnn4c3)c(C(C)C)c12` (centres unmarked) [Example 200], for which the EC50 at TLR7 was 4.05 nM; on TLR8, 332 nM.

For the compound `Cc1c(C2C3CNCC32)sc2[nH]c(-c3cc(C)c4ncnn4c3)c(C(C)C)c12` (centres unmarked) [Example 201], the figures for the EC50 on TLR7 and on TLR8 were less than 0.05 nM and 0.36 nM, respectively.

On to `Cc1c(C2C3CN(CC(N)=O)CC32)sc2[nH]c(-c3cc(C)c4ncnn4c3)c(C(C)C)c12` (centres unmarked) [Example 202], for which the EC50 at TLR7 turned out to be 2.59 nM; at TLR8, 2.97 nM.

Regarding `Cc1c(CCC2CCN(CC(N)=O)CC2)sc2[nH]c(-c3cc(C)c4ncnn4c3)c(C(C)C)c12` [Example 203], the EC50 at TLR7 was 4.2 nM; at TLR8, 6.23 nM.

In the case of `Cc1c(C23CCNCC2C3(F)F)sc2[nH]c(-c3cc(C)c4ncnn4c3)c(C(C)C)c12` (centres unmarked) [Example 204], the EC50 at TLR7 amounted to 0.5 nM; on TLR8, 30.4 nM.

For `Cc1c(C23CCN(CC(N)=O)CC2C3(F)F)sc2[nH]c(-c3cc(C)c4ncnn4c3)c(C(C)C)c12` (centres unmarked) [Example 205], the figures for the EC50 on TLR7 and at TLR8 were 0.6 nM and 230 nM, respectively.

Take `CCc1c(C2CCN(CC(N)=O)CC2)sc2[nH]c(-c3cc(C)c4ncnn4c3)c(C(C)C)c12` [Example 206]: the EC50 on TLR7 was found to be 0.18 nM; on TLR8 it was 45.1 nM.

The values are drawn from patent US11661431B2, “Thienopyrrole compounds” (Gilead Sciences, Inc., priority 2021, dated 2023).
